# Laboratory results from patent publication US7846943B2, “Azolopyridin-2-one derivatives as lipase and phospholipase inhibitors” (Sanofi-Aventis, priority 2005, dated 2010).
# Target: T1, endothelial lipase (EL) (Homo sapiens, UniProt Q9Y5X9)
# T1 construct: made in house; host or cells: recombinant cell lines (CHO, HEK293); concentrated conditioned medium used as enzyme solution
# T1 sequence (Q9Y5X9 21-500): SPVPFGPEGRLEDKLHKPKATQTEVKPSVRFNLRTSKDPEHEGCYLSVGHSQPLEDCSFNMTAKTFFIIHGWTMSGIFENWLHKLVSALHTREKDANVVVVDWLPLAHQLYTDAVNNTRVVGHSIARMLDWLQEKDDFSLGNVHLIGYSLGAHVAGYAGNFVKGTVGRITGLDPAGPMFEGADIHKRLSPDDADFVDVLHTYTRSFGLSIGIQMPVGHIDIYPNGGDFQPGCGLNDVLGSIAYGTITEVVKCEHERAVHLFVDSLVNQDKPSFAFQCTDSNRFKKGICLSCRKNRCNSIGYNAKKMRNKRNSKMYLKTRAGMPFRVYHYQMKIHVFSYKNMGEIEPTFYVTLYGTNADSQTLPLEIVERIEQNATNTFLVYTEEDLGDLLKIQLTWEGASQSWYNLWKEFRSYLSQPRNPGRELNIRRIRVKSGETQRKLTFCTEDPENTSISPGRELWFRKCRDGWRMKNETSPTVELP
# Assay: Further EL inhibition assay
# Format: biochemical
# Conditions: Bodipy-labelled phospholipid substrate, 37° C., 90 minutes, HPTLC fluorescence readout; EL from conditioned medium of recombinant cell lines (CHO, HEK293)
# Text: EL is released as secretory protein in high concentration into cell culture medium (conditioned medium) by recombinant cell lines (CHO, HEK293). This is employed as enzyme solution after concentration.
# The enzymatic activity is reduced as a function of the inhibitor concentration used, and the inhibitor concentration at which a half-maximum enzymatic activity is observed is called IC50.
# The phospholipase-specific substrate 1,2-bis(4,4-difluoro-5,7-dimethyl-4-bora-3a,4a-diaza-s-indacene-3-undecanoyl)-sn-glycero-3-phosphocholine, (manufacturer Molecular Probes) is used to characterize the enzymatic activity of endothelial lipase and the effect of inhibitors. Hydrolysis of the A1 ester linkage of this phospholipid by the enzyme liberates the fluorescent dye Bodipy which can be detected after separation by thin-layer chromatography on an HPTLC plate (silica gel 60, Merck) or directly in the reaction vessel by measuring the fluorescence. The substrate solution is prepared by dissolving 100 μg of 1,2-bis(4,4-difluoro-5,7-dimethyl-4-bora-3a,4a-diaza-s-indacene-3-undecanoyl)-sn-glycero-3-phospho-choline (manufacturer Molecular Probes) in 100 μl of DMSO and taking up in 2.4 mg of tripalmitin (Sigma) in 393 μl of chloroform which comprises 20 mg/ml DOP-choline (1,2-dioleoyl-sn-glycero-3-phosphocholine). 39.3 μl of this lipid mixture are transferred into a fresh reaction vessel, and the solvent is evaporated off. The lipid mixture is dissolved in 4 ml of 200 mM TRIS-HCl, 150 mM sodium chloride, pH=7.4, by sonication twice. The subsequent enzymic reaction takes place at 37° C. for 90 minutes. For this purpose, 20 μl of the substrate solution are incubated with 2 μl of inhibitor of appropriate concentration (dissolved in 10% DMSO, using 10% strength DMSO solution for control) and 2 μl of enzyme solution (conditioned medium). The 4 μl of the assay mixture are loaded onto an HPTLC plate (silica gel 60, Merck), and the liberated fluorescent dye is separated for detection with an eluent (diethyl ether:petroleum benzine:acetic acid [78:22:1]). After evaporation of the eluent, the plate is read in a fluorescence scanner. An increased liberation of the fluorescent dye in the uninhibited reaction is to be observed as a measure of the enzymic activity.
row,SMILES,IC50
1,"CCCCNC(=O)n1c(=O)oc2cccnc21 [Example 11, 2-Oxo-oxazolo[4,5-b]pyridine-3-butylcarboxamide]",354 nM
2,"Cc1ccccc1CNC(=O)n1c(=O)oc2cccnc21 [Example 1, 2-Oxo-oxazolo[4,5-b]pyridin-3-(2-methylbenzyl)carboxamide]",50 nM
3,"CCCCCCCNC(=O)n1c(=O)oc2cccnc21 [Example 9, 2-Oxo-oxazolo[4,5-b]pyridine-3-heptylcarboxamide]",11 nM
4,"Cc1ccccc1CNC(=O)n1c(=O)oc2cc(Br)cnc21 [Example 2, 6-Bromo-2-oxo-oxazolo[4,5-b]pyridine-3-(2-methylbenzyl)carboxamide]",10 nM
5,"Cc1cccc(CNC(=O)n2c(=O)oc3cccnc32)c1 [Example 4, 2-Oxo-oxazolo[4,5-b]pyridine-3-(3-methylbenzyl)carboxamide]",390 nM
6,"CCCCCCCCCCCCNC(=O)n1c(=O)oc2cccnc21 [Example 16, 2-Oxo-oxazolo[4,5-b]pyridin-3-dodecylcarboxamide]",180 nM
7,O=C(N[C@@H]1CCc2ccccc21)n1c(=O)oc2cccnc21 [Example 14],180 nM
8,"CCCCCCCCCNC(=O)n1c(=O)oc2cccnc21 [Example 20, 2-Oxo-oxazolo[4,5-b]pyridine-3-nonylcarboxamide]",90 nM
9,O=C(N[C@H]1CCc2ccccc21)n1c(=O)oc2cccnc21 [Example 15],230 nM
10,"Cc1ccc2oc(=O)n(C(=O)NCc3ccccc3C)c2n1 [Example 17, 5-Methyl-2-oxo-oxazolo[4,5-b]pyridine-3-(2-methylbenzyl)carboxamide]",61 nM
11,"Cc1ccc(CNC(=O)n2c(=O)oc3cccnc32)cc1C [Example 5, 2-Oxo-oxazolo[4,5-b]pyridine-3-(3,4-dimethylbenzyl)carboxamide]",10 nM
12,"O=C(NCC1CCCCC1)n1c(=O)oc2cccnc21 [Example 18, 2-Oxo-oxazolo[4,5-b]pyridine-3-cyclohexylmethylcarboxamide]",480 nM
13,"O=C(NC1CCCc2ccccc21)n1c(=O)oc2cccnc21 (stereo not drawn) [Example 13, 2-Oxo-oxazolo[4,5-b]pyridin-3-(1,2,3,4-tetrahydronaphthalen-1-yl)carboxamide]",0.5 nM
14,"CCCCCCCCNC(=O)n1c(=O)oc2cccnc21 [Example 19, 2-Oxo-oxazolo[4,5-b]pyridine-3-octylcarboxamide]",83 nM
15,"CCCCCCNC(=O)n1c(=O)oc2cccnc21 [Example 3, 2-Oxo-oxazolo[4,5-b]pyridine-3-hexylcarboxamide]",69 nM
